Like-named read-outs stand apart in the source and are kept apart here.
What was measured:
[1] = test system: Hut78 T lymphocytic leukemia cells; assay: In vitro anti-proliferative effect, CCK-8 method; format: cell-based; conditions: Homo sapiens, HuT78
Procedure: (§1) The inhibitory activities of the compounds towards Hut78 T lymphocytic leukemia cells, Jurkat E6-1 human T-cell lymphoma, A549 human lung cancer cells, K562 human chronic myelogenous leukemia cells, Hep3B2.1-7 human liver cancer cells, MDA-MB-435s human breast cancer cells, Colo320 human rectal cancer cell line, and PC-3 human prostate cancer were determined. The inhibition percentages as represented by IC50 values were obtained through CCK-8 method.

[2] = test system: K562 human chronic myelogenous leukemia cells; assay: In vitro anti-proliferative effect, CCK-8 method; format: cell-based
Procedure: as §1

[3] = test system: Jurkat E6-1 human T-cell lymphoma; assay: In vitro anti-proliferative effect, CCK-8 method; format: cell-based; conditions: Homo sapiens
Procedure: as §1

[4] = test system: Hep3B2.1-7 human liver cancer cells; assay: In vitro anti-proliferative effect, CCK-8 method; format: cell-based; conditions: Homo sapiens, Hep3B
Procedure: as §1

[5] = test system: A549 human lung cancer cells; assay: In vitro anti-proliferative effect, CCK-8 method; format: cell-based; conditions: Homo sapiens
Procedure: as §1

[6] = test system: MDA-MB-435s human breast cancer cells; assay: In vitro anti-proliferative effect, CCK-8 method; format: cell-based; conditions: Homo sapiens
Procedure: as §1

[7] = test system: PC-3 human prostate cancer; assay: In vitro anti-proliferative effect, CCK-8 method; format: cell-based; conditions: Homo sapiens
Procedure: as §1

[8] = Preliminary pharmacokinetic experiment; conditions: in vivo, rat
hERG potassium channel = hERG potassium channel (Homo sapiens (Human), UniProt Q12809); assay: Effects on hERG potassium channel; format: cell-based
hERG potassium channel, sequence (Q12809 whole entry): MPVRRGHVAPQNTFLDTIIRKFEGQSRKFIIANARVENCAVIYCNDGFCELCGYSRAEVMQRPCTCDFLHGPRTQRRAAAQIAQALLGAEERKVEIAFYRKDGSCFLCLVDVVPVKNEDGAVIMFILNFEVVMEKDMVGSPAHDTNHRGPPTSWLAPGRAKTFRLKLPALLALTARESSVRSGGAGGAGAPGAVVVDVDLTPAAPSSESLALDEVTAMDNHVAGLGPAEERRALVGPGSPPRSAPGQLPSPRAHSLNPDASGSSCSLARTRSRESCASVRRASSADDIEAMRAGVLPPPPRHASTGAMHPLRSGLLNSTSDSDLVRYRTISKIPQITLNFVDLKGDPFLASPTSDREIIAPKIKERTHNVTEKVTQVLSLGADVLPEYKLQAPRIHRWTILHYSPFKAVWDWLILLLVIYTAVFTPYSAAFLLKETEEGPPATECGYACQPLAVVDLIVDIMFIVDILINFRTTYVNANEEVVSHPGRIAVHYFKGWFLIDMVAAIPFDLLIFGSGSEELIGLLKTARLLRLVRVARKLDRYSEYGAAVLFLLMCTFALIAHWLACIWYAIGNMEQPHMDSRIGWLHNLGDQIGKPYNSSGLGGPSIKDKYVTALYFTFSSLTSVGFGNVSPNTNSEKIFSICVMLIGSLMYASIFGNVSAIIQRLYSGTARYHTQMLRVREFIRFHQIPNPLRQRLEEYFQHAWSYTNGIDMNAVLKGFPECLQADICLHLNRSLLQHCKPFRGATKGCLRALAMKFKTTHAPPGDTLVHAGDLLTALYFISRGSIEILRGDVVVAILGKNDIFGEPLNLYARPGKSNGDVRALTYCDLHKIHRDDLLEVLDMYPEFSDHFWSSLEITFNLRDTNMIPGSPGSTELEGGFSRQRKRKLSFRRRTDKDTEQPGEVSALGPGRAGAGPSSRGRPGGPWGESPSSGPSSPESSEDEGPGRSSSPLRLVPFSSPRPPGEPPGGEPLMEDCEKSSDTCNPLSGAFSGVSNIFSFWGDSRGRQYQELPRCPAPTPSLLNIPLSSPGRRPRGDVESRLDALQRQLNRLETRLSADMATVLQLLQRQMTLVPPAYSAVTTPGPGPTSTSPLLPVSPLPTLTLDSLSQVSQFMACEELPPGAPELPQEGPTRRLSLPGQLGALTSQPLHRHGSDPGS

HDAC1 = HDAC1 (Homo sapiens (Human), UniProt Q13547); assay: In vitro inhibitory activity towards HDAC1 (HDAC Inhibitor Drug Screening Kit); format: biochemical
HDAC1, sequence (Q13547 whole entry): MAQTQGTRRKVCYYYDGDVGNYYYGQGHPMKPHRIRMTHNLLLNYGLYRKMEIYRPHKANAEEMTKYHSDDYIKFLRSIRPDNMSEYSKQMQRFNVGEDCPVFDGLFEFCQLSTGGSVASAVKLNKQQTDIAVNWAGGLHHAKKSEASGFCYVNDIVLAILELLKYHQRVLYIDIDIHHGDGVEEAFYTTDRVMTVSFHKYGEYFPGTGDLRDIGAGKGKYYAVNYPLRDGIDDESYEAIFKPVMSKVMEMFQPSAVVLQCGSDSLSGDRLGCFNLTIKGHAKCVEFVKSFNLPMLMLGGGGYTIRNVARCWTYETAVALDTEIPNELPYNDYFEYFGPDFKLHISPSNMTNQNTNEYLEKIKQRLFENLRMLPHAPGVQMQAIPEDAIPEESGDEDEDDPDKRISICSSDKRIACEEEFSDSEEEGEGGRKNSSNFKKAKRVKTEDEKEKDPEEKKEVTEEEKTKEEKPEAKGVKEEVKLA
Procedure: (1) The compounds to be tested were each individually prepared as 10 μM and 1 μM solutions and their inhibitory activities towards HDAC1 at these concentrations were tested.
Each dilution sample was placed in two wells and the enzyme inhibition IC50 of the compound was tested.

IC50 [1]: 3.46 µM | IC50 [2]: 17.1 µM | IC50 [3]: 2.13 µM | IC50 [4]: 15.9 µM | IC50 [5]: 21.2 µM | IC50 [6]: 14.8 µM | IC50 [7]: 2.24 µM | half-life ([8]; iv, 2 mg/kg, i.v., read-out: Intravenous half-life (converted)): 0.95 h | bioavailability ([8]; oral): 28.8% | half-life ([8]; oral, read-out: Oral half-life (converted)): 6.37 h | inhibition at 1 µM (HDAC1; compound at 1 μM): 37.9% | inhibition at 10 µM (HDAC1; compound at 10 μM): 69.1%
SMILES: Nc1ccc(F)cc1NC(=O)c1ccc(CNC(=O)c2cc3ccccc3o2)cc1 [Compound V-9]
inhibition at 10 µM (hERG potassium channel; human, hERG potassium current, 10 μM, read-out: Maximum inhibition percentage at 10 μM): 19.9 ± 6.7% | IC50 (hERG potassium channel; read-out: Half inhibition concentration for the effect on hERG potassium current IC50): > 10 µM | inhibitory activity against HDAC1 compared with MS-275 (by IC50) (HDAC1; comparison with MS-275): better inhibitory activities against HDAC1 as compared with MS-275

— patent US9040727B2, “Histone deacetylase inhibitor of benzamides and use thereof” (Shanghai Institute of Pharmaceutical Industry, priority 2011, dated 2015)
